# Columns and labels:
# [1] = tested on: store-operated calcium channels; test: SOCE FLIPR assay in MDA-MB-231 cells; assay type: cell-based, human; conditions: 5 μM
# Method: Fig. 9 A. Recording of store-operated Ca^2+ entry (SOCE) in MDA-MB-231 cells pretreated for 20 min with either DMSO or SOCE inhibitor GSK-7975A, or 1vs.39. Ca^2+ store-depletion was achieved by 10 min treatment of cells with 1 μM thapsigargin (Tg) in a nominally Ca^2+ free buffer. […] The P-value of the 1vs.39 pretreated cells is indicated above the respective bar as *** for p ≤ 0.001 or non-significant (n.s.) for p > 0.05.
# MDA-MB-231 cells were trypsinized and plated at 6 x 10^4 cells/well onto 96-well black plates with clear bottom using 100 μl phenol -red free RPMI medium supplemented with 10% FBS. SOCE activity was measured 16 h later using the previousl y described FLIPR assay.11 After 16 h the medium was replaced with 50 μL of NCF loading buffer and the cells were incubated at 37 °C for 40 min, following which 50 µL of 2X drugs were manually applied (GSK-7975A, 1 or 39) and the cells were incubated for another 20 min.
# Stable Ca2+-free baselines were established for 50 seconds before 50 μL of a 3X thapsigargin (Tg) was robotically administered to the cells. Cells were incubated at 37 °C and fluorescence was monitored in the presence of Tg for an additional 10 minutes before administration of 50 μL of 4X CaCl 2. The activity of SOCE was measured by calculating the area under t he curve of the Ca2+ entry traces.
# hTRPV6 = biological target: T1, hTRPV6 (Homo sapiens, UniProt Q9H1D0); test: Confocal microscopy of Cd2+ uptake in HEK-hTRPV6 cells (Leadmium Green); assay type: cell-based; set-up: expressed in transfected cells; conditions: 10 μM, 30 min, versus vehicle
# T1 sequence (Q9H1D0 1-765): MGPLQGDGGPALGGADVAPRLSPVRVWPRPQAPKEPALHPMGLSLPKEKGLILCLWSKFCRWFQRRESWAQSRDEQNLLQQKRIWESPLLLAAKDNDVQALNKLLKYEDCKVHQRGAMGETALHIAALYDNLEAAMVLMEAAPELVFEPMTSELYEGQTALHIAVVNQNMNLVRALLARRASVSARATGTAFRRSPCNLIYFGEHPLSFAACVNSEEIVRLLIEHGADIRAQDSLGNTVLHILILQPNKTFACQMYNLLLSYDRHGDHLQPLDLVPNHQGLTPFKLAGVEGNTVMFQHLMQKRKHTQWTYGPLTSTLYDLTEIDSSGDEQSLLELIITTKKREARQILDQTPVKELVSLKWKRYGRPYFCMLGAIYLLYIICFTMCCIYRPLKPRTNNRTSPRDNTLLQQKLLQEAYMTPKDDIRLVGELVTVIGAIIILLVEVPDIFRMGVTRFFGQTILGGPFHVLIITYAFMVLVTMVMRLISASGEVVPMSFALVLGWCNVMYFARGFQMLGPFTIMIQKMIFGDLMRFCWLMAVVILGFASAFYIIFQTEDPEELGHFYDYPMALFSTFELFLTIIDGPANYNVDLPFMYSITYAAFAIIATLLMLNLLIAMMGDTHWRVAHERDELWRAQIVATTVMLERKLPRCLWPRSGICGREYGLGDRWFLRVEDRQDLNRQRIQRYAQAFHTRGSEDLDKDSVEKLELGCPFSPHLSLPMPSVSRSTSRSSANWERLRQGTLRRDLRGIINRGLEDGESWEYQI
# Method: . The cells were also stained with the wheat germ agglutinin Alexa Fluor™ 594 conjugate to mark the cytoplasmic membrane.[35],[36] […]. page 64:
# HEK-hTRPV6 were trypsinized and plated at 1 x 10^4 cells/well onto poly-D-lysine coated Nunc Lab-Tek II 8-well chambered coverglass plates (Faust Laborbedarf AG, Schaffhausen) using 100 μl DMEM supplemented with 10% FBS and 2 mM glutamine without antibiotics or phenol-red. After 24 h of incubation at 37 °C, the medium was replaced by 200 µL/well of a mixture of Leadmiun Green (final concentration: 5 ng/µL), Hoechst 33258 (final concentration: 1 ng/µL) and wheat germ agglutinin Alexa Fluor® 594 conjugate (final concentration: 5 ng/µL) in NCF buffer. The chamber was covered with aluminum foil and was incubated at 37 °C for 30 min. Then, the buffer was removed, cells were washed twice with fresh NCF buffer (2 x 200 µL) and another 190 µL of NCF containing 10X of 39 was added. For control cells, 200 µL of NCF was added after washing. The chamber was mounted in the confocal microscope and 10 µL of CdCl2 (final concentration: 50 μM) was added right after the start of imaging (total duration: 30 min). […]
# Fig S3. […] The total fluorescence intensity for each channel was plotted in graphs (B) and (D), respectively for DMSO and compound 39. […]
smiles,measurement,setting,value
O=c1ccc(CN2CCN([C@H]3CC[C@@](O)(c4cccc(C(F)(F)F)c4)CC3)CC2)c[nH]1 [compound 39],activity on store-operated calcium channels,[1],no detectable activity
same,Leadmium Green fluorescence after Cd2+ (50 μM),hTRPV6,significantly less pronounced

# Source: paper PMC7513592 (RSC Medicinal Chemistry, 2020)
